Experimental data as given in patent US20250275976A1, “Methods of Treating Neuroinflammatory Conditions” (Athira Pharma, Inc., priority 2022, published 2025).

Legend:
[1] = system: Rat primary cortical neuron cultures; test: Neuroprotection of rat primary cortical neurons against neurotoxic insults (Cell Titer-Glo viability); assay type: cell-based
Source text: HGF/MET signaling activation is expected to protect cells, including neurons, from cell death. […] Hydrogen peroxide (H2O2) treatment produces toxic oxidative stress. Bacteria-derived lipopolysaccharide (LPS) treatment induces inflammatory cell death. Treatment with excess glutamate (Glut) produces excitotoxicity in neuron cultures. Treatment with 1-methyl-4-phenylpyridinium (MPP^+) causes cell death by inhibition of mitochondrial function.
Cells were then subjected to individual conditional insults for 24 hours at the following concentrations: H2O2 at 1 uM, LPS at 1 uM, glutamate at 25 uM, or MPP+ at 500 uM. All treatments contained recombinant human HGF (R&D Systems) at a concentration of 5 ng/ml. MK-801 (Dizocilpine) is a pore blocker of the N-Methyl-D-aspartate (NMDA) receptor, a glutamate receptor, and was used as a positive control.
Data was normalized to DMSO+HGF control set at 100% cell viability.
Data are reported as statistical significance vs. insult control, with NS=not significant, +=p<0.05, ++=p<0.01, and +++=p<0.001.

[2] = system: THP-1-differentiated macrophages; test: Pro-inflammatory cytokines in supernatants of LPS-challenged THP-1-differentiated macrophages; assay type: cell-based, human; set-up: key to Significant reduction in pro-inflammatory cytokine expression: IL-6 / Significant reduction in pro-inflammatory cytokine expression: TNF-α / Significant reduction in pro-inflammatory cytokine expression: IL-1β: “NS” indicates a non-significant reduction in the indicated cytokine; “+” indicates a p value <0.05 in Tukey post test; “++” indicates a p value <0.01 in Tukey post test; conditions: for Significant reduction in pro-inflammatory cytokine expression: IL-1β / Significant reduction in pro-inflammatory cytokine expression: IL-6 / Significant reduction in pro-inflammatory cytokine expression: TNF-α: LPS 24 hrs
Source text: Neuroinflammation plays a crucial role in disease progression and is a complex phenomenon involving various cells that affect many extra- and intracellular signaling pathways and cytokine production. The macrophage of the brain (microglia) is the main agent of innate immunity in the CNS and performs various functions, including neuroprotection, in response to inflammatory signals. Activated microglia participate in developing neuroinflammation, responding to toxic exogenous substances (like LPS) or endogenous substances (like amyloid-beta). Here, THP-1 cells were used as an in-vitro cell model to evaluate mechanisms relevant to CNS inflammation. Differentiation with phorbol-12-myristate-13-acetate (PMA) causes THP-1 monocyte cells to acquire functional and morphological resemblance to macrophages. LPS interacts with THP-1 differentiated macrophage through the toll-like receptor 4, triggering the inflammatory response and stimulating pro-inflammatory cytokine release and eventually leading to cellular death. Test compounds were investigated for whether they have anti-inflammatory effects on LPS-challenged macrophage cultures. THP-1-differentiated macrophages were treated with test compounds for 20 minutes, followed by 24 hrs of LPS challenge. Culture supernatants were then collected to analyzed for the presence of pro-inflammatory cytokines: interleukin 1β (IL--1β), interleukin 6 (IL-6) and tumor necrosis factor α (TNF-α).
Cytokine quantification in cell culture supernatants was accomplished by homogeneous time resolved fluorescence (HTRF) kits to assess levels of IL-1β (Human IL-1β kit, #62HIL1BPEG, Cisbio) and IL-6 (Human IL-6 kit, 62HILO6PET, Cisbio), and by ELISA (Human TNF-α ELISA kit, KHC3011, ThermoFisher) to determine the levels of TNF-α.
Data analysis was performed via 1-way ANOVA with Tukey post-test compared to LPS treatment cultures using Prism statistical software (GraphPad). Tabular data indicates significance of reduction in culture supernatants for the indicated analyte at the indicated dose.

[3] = system: Rat primary cortical neuron cultures; test: Neuroprotection of rat cortical neurons against LPS challenge (Cell Titer-Glo); conditions: at at least one dose tested

With CCC(C)CN1CC2N(C(=O)c3ccc(C(F)(F)F)cc3)CCC(=O)N2[C@@H](C)C1=O (some centres unmarked) [Compound 1a] the “Statistical significance vs. insult control (cell viability)” value ([1]; Glutamate (25 uM) insult, [Compound 1a] 0.1 nM + HGF (5 ng/ml)) was “+++ (+++=p<0.001)”, the “Statistical significance vs. insult control (cell viability)” value ([1]; Glutamate (25 uM) insult, [Compound 1a] 1 nM + HGF (5 ng/ml)) was “+++ (+++=p<0.001)” and the “Statistical significance vs. insult control (cell viability)” value ([1]; Glutamate (25 uM) insult, [Compound 1a] 100 nM (second column headed 100 nM) + HGF (5 ng/ml)) was “+++ (+++=p<0.001)”. For the same molecule, the “Statistical significance vs. insult control (cell viability)” value ([1]; Glutamate (25 uM) insult, [Compound 1a] 100 nM + HGF (5 ng/ml)) was “+++ (+++=p<0.001)”, the “Statistical significance vs. insult control (cell viability)” value ([1]; Glutamate (25 uM) insult, [Compound 1a] 1 uM + HGF (5 ng/ml)) was “+++ (+++=p<0.001)” and the “Statistical significance vs. insult control (cell viability)” value ([1]; H2O2 (1 uM) insult, [Compound 1a] 0.1 nM + HGF (5 ng/ml)) was “+++ (+++=p<0.001)”. For the same molecule, the “Statistical significance vs. insult control (cell viability)” value ([1]; H2O2 (1 uM) insult, [Compound 1a] 1 nM + HGF (5 ng/ml)) was “+++ (+++=p<0.001)”, the “Statistical significance vs. insult control (cell viability)” value ([1]; H2O2 (1 uM) insult, [Compound 1a] 100 nM (second column headed 100 nM) + HGF (5 ng/ml)) was “+++ (+++=p<0.001)” and the “Statistical significance vs. insult control (cell viability)” value ([1]; H2O2 (1 uM) insult, [Compound 1a] 100 nM + HGF (5 ng/ml)) was “+++ (+++=p<0.001)”. For the same molecule, the “Statistical significance vs. insult control (cell viability)” value ([1]; H2O2 (1 uM) insult, [Compound 1a] 1 uM + HGF (5 ng/ml)) was “+++ (+++=p<0.001)”, the “Neuroprotection against the cohort of insults (result in words)” value ([1]; H2O2, glutamate, LPS, MPP+, broad range of concentrations) was “effective neuroprotective treatment at a broad range of concentrations against the entire cohort of insults tested” and the “Statistical significance vs. insult control (cell viability)” value ([1]; LPS (1 uM) insult, [Compound 1a] 0.1 nM + HGF (5 ng/ml)) was “+++ (+++=p<0.001)”. The “Statistical significance vs. insult control (cell viability)” value ([1]; LPS (1 uM) insult, [Compound 1a] 100 nM (second column headed 100 nM) + HGF (5 ng/ml)) was “+++ (+++=p<0.001)”, the “Statistical significance vs. insult control (cell viability)” value ([1]; LPS (1 uM) insult, [Compound 1a] 100 nM + HGF (5 ng/ml)) was “+++ (+++=p<0.001)” and the “Statistical significance vs. insult control (cell viability)” value ([1]; LPS (1 uM) insult, [Compound 1a] 1 uM + HGF (5 ng/ml)) was “+++ (+++=p<0.001)”. For the same molecule, the “Statistical significance vs. insult control (cell viability)” value ([1]; MPP+ (500 uM) insult, [Compound 1a] 0.1 nM + HGF (5 ng/ml)) was “+++ (+++=p<0.001)”, the “Statistical significance vs. insult control (cell viability)” value ([1]; MPP+ (500 uM) insult, [Compound 1a] 1 nM + HGF (5 ng/ml)) was “+++ (+++=p<0.001)” and the “Statistical significance vs. insult control (cell viability)” value ([1]; MPP+ (500 uM) insult, [Compound 1a] 100 nM (second column headed 100 nM) + HGF (5 ng/ml)) was “+++ (+++=p<0.001)”. For the same molecule, the “Statistical significance vs. insult control (cell viability)” value ([1]; MPP+ (500 uM) insult, [Compound 1a] 100 nM + HGF (5 ng/ml)) was “+++ (+++=p<0.001)”, the “Statistical significance vs. insult control (cell viability)” value ([1]; MPP+ (500 uM) insult, [Compound 1a] 1 uM + HGF (5 ng/ml)) was “+++ (+++=p<0.001)” and the “Expression of IL-1β and TNF-α (result in words)” value ([2]; at at least one tested dose) was “significantly reduced”. The “Expression of IL-6 (result in words)” value ([2]; at at least one tested dose) was “significantly reduced”, the “Significant reduction in pro-inflammatory cytokine expression: IL-1β” value (shortened to “Significant reduction … IL-1β”) ([2]; dose 0.1 nM) was “++ (“++” indicates a p value <0.01 in Tukey post test)” and the “Significant reduction in pro-inflammatory cytokine expression: IL-6” value (“Significant reduction … IL-6” for short) ([2]; dose 0.1 nM) was “NS”. For the same molecule, the “Significant reduction in pro-inflammatory cytokine expression: TNF-α” value (shortened to “Significant reduction … TNF-α”) ([2]; dose 0.1 nM) was “++ (“++” indicates a p value <0.01 in Tukey post test)”, the “Significant reduction … IL-1β” value ([2]; dose 10 nM) was “++ (“++” indicates a p value <0.01 in Tukey post test)” and the “Significant reduction … IL-6” value ([2]; dose 10 nM) was “++ (“++” indicates a p value <0.01 in Tukey post test)”. For the same molecule, the “Significant reduction … TNF-α” value ([2]; dose 10 nM) was “++ (“++” indicates a p value <0.01 in Tukey post test)”, the “Significant reduction … IL-1β” value ([2]; dose 1000 nM) was “++ (“++” indicates a p value <0.01 in Tukey post test)” and the “Significant reduction … IL-6” value ([2]; dose 1000 nM) was “+ (“+” indicates a p value <0.05 in Tukey post test)”. For the same molecule, the “Significant reduction … TNF-α” value ([2]; dose 1000 nM) was “++ (“++” indicates a p value <0.01 in Tukey post test)” and the “Protection of primary neurons from LPS-stimulated inflammatory toxicity (in words)” value [3] was “protected primary neurons from LPS-stimulated inflammatory toxicity”.
